Laboratory results: patent publication US8604055B2, “Substituted benzylamino quinolines as cholesterol ester-transfer protein inhibitors” (Dr. Reddy's Laboratories Ltd., priority 2004, dated 2013)

Target: T1, Recombinant CETP enzyme (Homo sapiens, UniProt P11597)
T1 construct: purchased Cardiovascular Targets
T1 sequence (P11597 18-493): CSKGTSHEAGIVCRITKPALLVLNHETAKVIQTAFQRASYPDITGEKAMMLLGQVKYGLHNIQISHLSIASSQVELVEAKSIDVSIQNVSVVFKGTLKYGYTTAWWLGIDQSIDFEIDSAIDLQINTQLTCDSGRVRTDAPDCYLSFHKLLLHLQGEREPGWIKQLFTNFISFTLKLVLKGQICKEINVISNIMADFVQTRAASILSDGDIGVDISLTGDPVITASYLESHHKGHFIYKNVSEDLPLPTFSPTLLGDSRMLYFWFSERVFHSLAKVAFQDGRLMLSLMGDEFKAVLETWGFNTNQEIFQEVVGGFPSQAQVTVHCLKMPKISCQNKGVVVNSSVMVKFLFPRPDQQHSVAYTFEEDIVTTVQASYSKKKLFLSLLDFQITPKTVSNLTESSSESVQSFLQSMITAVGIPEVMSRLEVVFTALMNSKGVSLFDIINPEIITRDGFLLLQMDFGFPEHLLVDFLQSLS
Experiment: In vitro fluorescence-based CETP inhibition assay (BODIPY-CE transfer from donor to acceptor microemulsions)
Format: biochemical
Conditions: recombinant CETP 0.14 ng/μl; transfer of fluorescent cholesteryl ester monitored over 2 hours; vs DMSO controls
Method: An in vitro fluorescence-based assay to identify CETP inhibitors was developed from modifications of the protocols outlined in Bisgaier et al., J Lipid Res., 34(9): 1625-34 (1993) and Epps et al., Chem Phys Lipids., 77(1): 51-63 (1995). Acceptor and donor lipid microemulsions were prepared according to Bisgaier et al., 1993, except that the buffer was prepared with 0.67 ug/mL human HDL (Calbiochem). Donor microemulsions contained the fluorescent cholesteryl ester analog BODIPY-CE (Molecular Probes), characterized by excitation and emission maxima at 503 nm and 518 nm, respectively. The CETP-mediated transfer of fluorescent cholesteryl ester to acceptor particles was monitored over a 2-hour time period using the FAM filter set (excitation 492 nm, emission 516 nm) in an MX3000P fluorescent plate reader (Stratagene). Recombinant CETP enzyme (Cardiovascular Targets) was used at 0.14 ng/μl, final concentration, to achieve lipid transfer. CETP inhibition by compounds was compared to DMSO controlsand graphed as a percentage of the control CETP activity over 2 hours. The IC50 curves for CETP inhibition were generated from the activity profiles. Active compounds were also tested for CETP inhibition as above, but in the presence of 3% human serum albumin, fraction V (Calbiochem).

SMILES | IC50
Cc1nn(C)c2nc(N(CC3CC3)CC3CC3)c(CN(Cc3cc(C(F)(F)F)cc(C(F)(F)F)c3)c3nnn(C)n3)cc12 [Example 2, (5-{[(3,5-bis-trifluoromethyl-benzyl)-(2-methyl-2H-tetrazole-5-yl)-amino]-methyl}-1,3-dimethyl-1H-pyrazolo[3,4-b]pyridin-6-yl)-bis-cyclopropylmethyl-amine] | ≤ 1 µM
CCN(CC1CCCC1)c1nc2ccccc2cc1CN(Cc1cc(C(F)(F)F)cc(C(F)(F)F)c1)C(=S)SC [Example 48, (3,5-bis-trifluoromethyl-benzyl)[2-(cyclopentylmethyl-ethyl-amino)-quinolin-3-ylmethyl]-dithiocarbamic acid methyl ester] | ≤ 5 µM
Cc1nn(C)c2nc(N(CC3CC3)CC3CC3)c(CN(Cc3cc(Cl)cc(Cl)c3)c3nnn(C)n3)cc12 [Example 21, bis-cyclopropylmethyl-(5-{[(3,5-dichlorobenzyl)-(2-methyl-2H-tetrazol-5-yl)-amino]-methyl}-1,3-dimethyl-1H-pyrazolo[3,4-b]pyridin-6-yl)-amine] | ≤ 1 µM
CCN(CC1CCCC1)c1nc2c(cc1CN(Cc1cc(F)cc(F)c1)c1nnn(C)n1)c(C)nn2C [Example 18, cyclopentylmethyl-ethyl-(5-{[(3,5-difluoro-benzyl)-(2-methyl-2H-tetrazol-5-yl)-amino]-methyl}-1,3-dimethyl-1H-pyrazolo[3,4-b]pyridine-6-yl)-amine] | ≤ 1 µM
Cn1nnc(N(Cc2cc(C(F)(F)F)cc(C(F)(F)F)c2)Cc2cc3cnn(C)c3nc2N(CC2CC2)CC2CC2)n1 [Example 13, (5-{[(3,5-bis-trifluoromethyl-benzyl)-(2-methyl-2H-tetrazol-5-yl)-amino]-methyl}-1-methyl-1H-pyrazolo[3,4-b]pyridin-6-yl)-bis-cyclopropylmethyl-amine] | ≤ 1 µM
CCOC(=O)N(Cc1cc(C(F)(F)F)cc(C(F)(F)F)c1)Cc1cc2ccccc2nc1N(CC)CC1CCCCC1 [Example 42, (3,5-bis-trifluoromethyl-benzyl)-[2-(cyclohexylmethyl-ethyl-amino)-quinolin-3-ylmethyl]-carbamic acid ethyl ester] | ≤ 5 µM
Cc1nn(C)c2nc(N(C)CC3CCC3)c(CN(Cc3cc(C(F)(F)F)cc(C(F)(F)F)c3)c3nnn(C)n3)cc12 [Example 4, (5-{[(3,5-bis-trifluoromethyl-benzyl)-(2-methyl-2H-tetrazole-5-yl)-amino]-methyl}-1,3-dimethyl-1H-pyrazolo[3,4-b]pyridin-6-yl)-cyclobutylmethyl-methyl-amine] | ≤ 1 µM
Cc1nn(C)c2nc(N(CC3CC3)C(=O)C3CC3)c(CN(Cc3cc(C(F)(F)F)cc(C(F)(F)F)c3)c3nnn(C)n3)cc12 [Example 27, cyclopropanecarboxylic acid (5-{[(3,5-bis-trifluoromethyl-benzyl)-(2-methyl-2H-tetrazol-5-yl)-amino]-methyl}-1,3-dimethyl-1H-pyrazolo[3,4-b]pyridin-6-yl)-cyclopropylmethyl-amide] | ≤ 1 µM
CCN(CC1CCCC1)c1nc2ccccc2cc1CN(Cc1cc(C(F)(F)F)cc(C(F)(F)F)c1)C(=O)OC [Example 35, (3,5-bis-trifluoromethyl-benzyl)-[2-(cyclopentylmethyl-ethyl-amino)-quinolin-3-ylmethyl]-carbamic acid methyl ester] | ≤ 5 µM
CCN(CC1CCCC1)c1nc2c(cc1CN(Cc1cc(Cl)cc(Cl)c1)c1nnn(C)n1)c(C)nn2C [Example 19, cyclopentylmethyl-(1,3-dimethyl-5-{[(2-methyl-2H-tetrazol-5-yl)-(3,5-dichlorobenzyl)-amino]-methyl}-1H-pyrazolo[3,4-b]pyridin-6-yl)-ethyl-amine] | ≤ 1 µM

Now from value to compound:

IC50 | SMILES
≤ 1 µM | CCN(CC1CCCC1)c1nc2c(cc1CN(Cc1cc(C(F)(F)F)cc(C(F)(F)F)c1)C(=O)OC)CCCC2 [Example 74]
≤ 5 µM | CCN(CC1CCCC1)c1nc2ccccc2cc1CN(Cc1cc(C(F)(F)F)cc(C(F)(F)F)c1)c1ncccn1 [Example 66, (3-{[(3,5-bis-trifluoromethyl-benzyl)-pyrimidin-2-yl-amino]-methyl}-quinolin-2-yl)-cyclopentylmethyl-ethyl-amine]
≤ 5 µM | CCOC(=O)NC(=S)N(Cc1cc(C(F)(F)F)cc(C(F)(F)F)c1)Cc1cc2ccccc2nc1N(CC)CC1CCCC1 [Example 49, 3-ethoxycarbonyl-1-(3,5-Bis-trifluoromethyl-benzyl)-1-[2-(cyclopentylmethyl-ethyl-amino)-quinolin-3-ylmethyl]-thiourea]
≤ 1 µM | CCN(CC1CC1)c1nc2ccccc2cc1CN(Cc1cc(C(F)(F)F)cc(C(F)(F)F)c1)c1nnn(C)n1 [Example 55]
≤ 1 µM | CCN(CC1CCCC1)c1nc2c(cc1CN(Cc1cc(C(F)(F)F)cc(C(F)(F)F)c1)c1nnn(C)n1)CCC2 [Example 76, (3-{[(3,5-bis-trifluoromethyl-benzyl)-(2-methyl-2H-tetrazole-5-yl)-amino]-methyl}-,6,7-dihydro-5H-[1]pyridine-2-yl)-cyclopentylmethyl-ethyl-amine]
≤ 1 µM | Cc1cccc2cc(CN(Cc3cc(C(F)(F)F)cc(C(F)(F)F)c3)c3nnn(CCNC(=O)OC(C)(C)C)n3)c(N(CC3CC3)CC3CC3)nc12 [Example 86, (2-{5-[[2-(bis-cyclopropylmethyl-amino)-8-methyl-quinolin-3-ylmethyl]-(3,5-bis-trifluoromethyl-benzyl)-amino]-tetrazol-2-yl}-ethyl)-carbamic acid tert-butyl ester]
≤ 5 µM | CCN(CC1CCCC1)c1nc2ccccc2cc1CN(Cc1cc(C(F)(F)F)cc(C(F)(F)F)c1)C1=NCCO1 [Example 68, (3-{[(3,5-bis-trifluoromethyl-benzyl)-(4,5-dihydro-oxazol-2-yl)-amino]-methyl}-quinolin-2-yl)-cyclopentylmethyl-ethyl-amine]
≤ 5 µM | CCN(CC1CCCC1)c1nc2ccccc2cc1CN(Cc1cc(C(F)(F)F)cc(C(F)(F)F)c1)Cc1nnnn1C [Example 71, (3-{[(3,5-bis-trifluoromethyl-benzyl)-(1-methyl-1H-tetrazol-5-ylmethyl)-amino]-methyl}-quinolin-2-yl)-cyclopentylmethyl-ethyl-amine]
≤ 1 µM | CCN(CC1CCC1)c1nc2c(cnn2CC2CC2)cc1CN(Cc1cc(C(F)(F)F)cc(C(F)(F)F)c1)c1nnn(C)n1 [Example 101, (5-{[(3,5-bis-trifluoromethyl-benzyl)-(2-methyl-2H-tetrazol-5-yl)-amino]methyl}-1-cyclopropylmethyl-1H-pyrazolo[3,4-b]pyridin-6-yl)-cyclobutylmethyl-ethyl-amine]
≤ 1 µM | Cc1cccc2cc(CN(Cc3cc(C(F)(F)F)cc(C(F)(F)F)c3)c3ccc(Br)cn3)c(N(CC3CC3)CC3CC3)nc12 [Example 111, (3-{[(3,5-bis-trifluoromethyl-benzyl)-(5-bromo-pyridin-2-yl)-amino]-methyl}-8-methyl-quinolin-2-yl)-bis-cyclopropylmethyl-amine]
≤ 1 µM | CCN(CC1CCCC1)c1nc2ccccc2cc1CN(Cc1cc(C(F)(F)F)cc(C(F)(F)F)c1)c1nc(C)co1 [Example 67]
≤ 1 µM | Cc1cccc2cc(CN(Cc3cc(C(F)(F)F)cc(C(F)(F)F)c3)c3nnn(C(C)C)n3)c(N(CC3CC3)CC3CC3)nc12 [Example 85]
